# Target: Glutamate receptor ionotropic, AMPA (Rattus norvegicus, UniProt P19490+P19491+P19492+P19493)
# Description: Antagonist potency against functional AMPA receptor by kainate-induced Ca+2 in rat cerebellar granule neurons in primary culture
row,Compound,IC50 [nM]
1,Cc1ccccc1-n1c(C)nc2ccccc2c1=O [METHAQUALONE],> 10000
2,Cc1ccc(C#N)c(/C(O)=C/c2nc3ccc(F)cc3c(=O)n2-c2ccccc2Cl)n1,9.3
3,Cc1nc2ccccc2c(=O)n1-c1ccccc1Cl [MECLOQUALONE],> 10000
4,O=c1c2cc(F)ccc2nc(/C=C(\O)c2ccccc2F)n1-c1ccccc1Cl,> 30000
5,O=c1c2ccccc2nc(/C=C(\O)c2ccncc2)n1-c1ccccc1Cl,370
6,Cc1cccc(/C(O)=C/c2nc3ccc(F)cc3c(=O)n2-c2ccccc2Cl)n1,5500
7,O=c1c2cc(F)ccc2nc(/C=C(\O)c2ccccn2)n1-c1ccccc1Cl,250
8,CC1=NN=C(c2ccc(N)cc2)c2cc3c(cc2C1)OCO3 [GYKI-52466],22000
9,O=c1c2ccccc2nc(/C=C(\O)c2ccccn2)n1-c1ccccc1Cl,490
10,N#Cc1ccccc1/C(O)=C/c1nc2ccc(F)cc2c(=O)n1-c1ccccc1Cl,130
11,N#Cc1cccnc1/C(O)=C/c1nc2ccc(F)cc2c(=O)n1-c1ccccc1Cl,14

# Reference: ChEMBL document CHEMBL1132900, “Methaqualone derivatives are potent noncompetitive AMPA receptor antagonists” (Bioorg Med Chem Lett, 2000)
